Assay results from patent publication US10676438B2, “KCNQ2-5 channel activator” (Ono Pharmaceutical Co., Ltd., priority 2014, dated 2020).
In brackets after ≈: the same amount, converted by molar mass.

Columns and labels:
[1] = molecular target: Human KCNQ2/3 channel (Homo sapiens (Human), UniProt O43525+O43526); assay: Opening action with respect to KCNQ2/3 channel by depolarization stimulation (thallium influx, FLIPR); assay type: cell-based; conditions: concentration giving 50% of maximum reaction of retigabine (10 μM); human KCNQ2/3 expression CHO-DHFR- cells; 5 mM potassium and 0.5 mM thallium; read-out: KCNQ2/3 ECrtg50
Method in brief: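 CHO-DHFR- cells expressing human KCNQ2/3, loaded with FluxOR thallium dye 60 min at room temperature. Compound added 5 min before depolarisation with 5 mM K+ and 0.5 mM Tl+; fluorescence change over 180 s read on FLIPR. ECrtg50 is the concentration giving 50% of the maximal response to 10 μM retigabine.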

[2] = test system: urinary bladder extracted from rat; assay: Relaxing action on urinary bladder extracted from rat (rat Magnus test); conditions: concentration at which tension change rate is -20%; carbachol 1 μM-induced contraction of rat urinary bladder strips
Method: Female Jcl Wistar rats (CLEA Japan, Inc., body weight in use: 170 to 200 g) were anesthetized by intraperitoneal administration of about 40 mg/kg of pentobarbital (Somnopentyl, Schering Plough Animal Health Corporation), and killed by bloodletting, followed by abdominal incision to extract the urinary bladder. Immediately, the extracted urinary bladder was immersed in ice-cooled Krebs buffer (Krebs Ringer bicarbonate buffer (Sigma-Aldlich Co.) containing sodium hydrogencarbonate (final concentration: 15 mM) and calcium chloride (final concentration: 2.5 mM)) which had been saturated with a mixed gas (95% O2, 5% CO2).
The urinary bladder bodies were cut in the longitudinal direction to prepare strip specimens (about 10×3 mm) on ice. Immediately, the prepared specimens were suspended in a Magnus tube with 500 mg of tension loaded. The tube was filled with Krebs buffer (37° C.) aerated with a mixed gas. Note here that specimens were prepared within 24 hours after extraction of the tissue.
When one hour or more had passed after the specimen was suspended, 2.5M KCl was added so that the final concentration became 100 mM, specimens showing contraction reaction were used.
Carbachol (a contraction-inducing substance) at the concentration of contraction of 1 μM was used to induce contraction. […] After the contraction reaction was stabilized, a physiological salt solution or the compound of the present invention was added in a cumulative manner from low concentration such that the final concentration became 1, 10, 100 nM, 1 and 10 μM.
The tension (mg) of the extracted urinary bladder was employed as an evaluation parameter. The tension was read by using analysis software WAVE THERMO 1000. Tension after addition of the contraction-inducing substance was set to 0%. The change rate of the tension after addition of the compound of the present invention relative to the tension after addition of the contraction-inducing substance was defined as tension change rate (%). The tension change rate (%) was adopted as an evaluation indicator. The tension change rate (%) is calculated from the following formula. Tension change rate (%)={Tension after addition of compound of the present invention and the like (mg)−Tension before addition of contraction-inducing substance (mg)}/{Tension after addition of contraction-inducing substance (mg)−Tension before addition of contraction-inducing substance (mg)}×100−100
The value at which the tension change rate (%) was −20% was calculated as IC20, and the value was adopted as an indicator of the relaxing action of the extracted urinary bladder.

[3] = Solubility test (DMSO precipitation method, Pharmacopoeia of Japan elution test second solution); assay type: physicochemical; conditions: aqueous buffer, kinetic from dmso stock; Pharmacopoeia of Japan elution test second solution pH=6.8, room temperature, five hours; quantitation range 5 to 100 μM
Method in brief: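 Test compound from 10 mM DMSO stock added to JP elution test second solution (pH 6.8), stirred 5 h at room temperature, then suction-filtered. Filtrate diluted in acetonitrile with internal standard and quantified by LC-MS/MS against a calibration curve (quantitation range 5 to 100 μM).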

[4] = Evaluation of stability in human liver microsome; assay type: in vitro ADME; conditions: human, 15 min, 5 μmol/L, pH 7.4
Method: A test compound (10 mmol/L DMSO solution, 5 μL) was diluted with 50% acetonitrile aqueous solution (195 μL) to prepare 0.25 mmol/L solution.
To a reactor vessel which had been warmed to 37° C. in advance, 0.5 mg/mL of human liver microsome (Xenotech) and 245 μL of 0.1 M phosphate buffer solution (pH 7.4) including NADPH-Co-factor (BD Biosciences) were added, followed by preincubation for five minutes. Then, the above-mentioned test compound solution (5 μL) was added so as to start reaction (final concentration: 5 μmol/L). Immediately after the start, 20 μL was harvested and added to 180 μL of acetonitrile including an internal standard substance (warfarin) to stop the reaction. This solution (20 μL) was stirred with 180 μL of 50% acetonitrile aqueous solution on a plate equipped with a deproteinization filter. Then, the resulting mixture solution was subjected to suction filtration. The filtrate was adopted as a standard sample.
The above-mentioned reaction solution was incubated at 37° C. for 15 minutes, and 20 μL of the solution was added to 180 μL of cooled acetonitrile (including warfarin that is an internal standard substance) to stop the reaction. This solution (20 μL) was stirred with 180 μL of 50% acetonitrile aqueous solution on a plate equipped with a deproteinization filter, and then the resulting mixture solution was subjected to suction filtration. The filtrate was adopted as a reaction sample.
Residual rate (%) was obtained as follows: 1 μL of the sample solution was infused into LC-MS/MS (Discovery Max manufactured by Thermo Scientific), and a quotient obtained by dividing a peak area ratio of the reaction sample (peak area of test compound/peak area of internal standard substance) was divided by the peak area ratio of the standard sample was multiplied by 100.

[5] = molecular target: hERG channel (Homo sapiens (Human), UniProt Q12809); assay: Evaluation of action on hERG IKr current (patch-clamp); assay type: cell-based; conditions: HEK293 cell overexpressing hERG, maximum tail current, 10 minutes after application; read-out: IC50 (50% inhibitory activity of hERG channel)
Sequence of hERG channel (Q12809 whole entry): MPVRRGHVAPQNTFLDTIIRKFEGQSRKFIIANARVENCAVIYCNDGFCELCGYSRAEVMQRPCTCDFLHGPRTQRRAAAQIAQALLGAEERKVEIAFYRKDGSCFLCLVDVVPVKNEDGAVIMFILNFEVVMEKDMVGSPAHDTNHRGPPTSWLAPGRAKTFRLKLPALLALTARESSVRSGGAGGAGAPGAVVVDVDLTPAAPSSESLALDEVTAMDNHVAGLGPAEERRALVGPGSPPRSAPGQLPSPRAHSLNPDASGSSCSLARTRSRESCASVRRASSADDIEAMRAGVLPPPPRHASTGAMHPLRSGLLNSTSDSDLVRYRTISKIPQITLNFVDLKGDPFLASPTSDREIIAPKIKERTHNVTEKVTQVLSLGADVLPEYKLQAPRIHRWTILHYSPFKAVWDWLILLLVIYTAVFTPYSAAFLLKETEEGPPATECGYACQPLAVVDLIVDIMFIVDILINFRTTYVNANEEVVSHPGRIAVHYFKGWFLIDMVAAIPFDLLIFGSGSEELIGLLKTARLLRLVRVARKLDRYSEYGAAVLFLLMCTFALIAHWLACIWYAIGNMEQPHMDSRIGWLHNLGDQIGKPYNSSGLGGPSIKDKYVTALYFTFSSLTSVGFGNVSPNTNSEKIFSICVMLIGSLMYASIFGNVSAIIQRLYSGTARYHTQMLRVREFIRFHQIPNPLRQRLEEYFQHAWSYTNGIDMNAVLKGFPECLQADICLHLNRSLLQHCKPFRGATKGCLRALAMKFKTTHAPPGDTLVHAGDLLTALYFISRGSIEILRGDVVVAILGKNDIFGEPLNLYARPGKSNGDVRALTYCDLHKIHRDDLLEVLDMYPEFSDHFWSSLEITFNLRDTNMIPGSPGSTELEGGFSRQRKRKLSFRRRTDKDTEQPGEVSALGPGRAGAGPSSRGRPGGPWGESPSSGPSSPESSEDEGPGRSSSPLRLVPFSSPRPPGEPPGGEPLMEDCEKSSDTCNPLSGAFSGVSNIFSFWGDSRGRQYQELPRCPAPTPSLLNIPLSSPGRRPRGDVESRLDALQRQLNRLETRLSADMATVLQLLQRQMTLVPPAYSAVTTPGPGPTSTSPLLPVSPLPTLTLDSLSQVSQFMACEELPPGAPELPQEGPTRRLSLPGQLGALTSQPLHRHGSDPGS
Method: Using HEK293 cell overexpressing a human ether-a-go-go-related gene (hERG), the maximum tale current of the hERG IKr current induced by redepolarization pulse subsequent to depolarization pulse was measured by a patch-clamp method.

| Compound | EC50 [1] [nM] | solubility at 5 h [3] [µM] | Residual rate [4] [%] | IC20 [2] [nM] | IC50 [5] [nM] |
| --- | --- | --- | --- | --- | --- |
| O=C(NCc1cnc(C(F)(F)F)nc1)Nc1c(Cl)cc([C@@H](O)C(F)(F)F)cc1Cl [Example 32 (3), 1-{2,6-dichloro-4-[(1R)-2,2,2-trifluoro-1-hydroxyethyl]phenyl}-3-{[2-(trifluoromethyl)-5-pyrimidinyl]methyl}urea] | 500 | 100 (≈ 46.3 µg/mL) | 100 | 100 | > 10000 |
| O=C(NCc1ncc(C(F)(F)F)cn1)Nc1c(Cl)cc([C@@H](O)C(F)(F)F)cc1Cl [Example 32 (4), 1-{2,6-dichloro-4-[(1R)-2,2,2-trifluoro-1-hydroxyethyl]phenyl}-3-{[5-(trifluoromethyl)-2-pyrimidinyl]methyl}urea] | 200 | 77 (≈ 35.7 µg/mL) | 100 | 200 | > 10000 |

More lines, main results first:

| EC50 [1] [nM] | solubility at 5 h [3] [µM] | Residual rate [4] [%] | Compound | IC20 [2] [nM] | IC50 [5] [nM] |
| --- | --- | --- | --- | --- | --- |
| 40 | 91 (≈ 42.6 µg/mL) | 100 | O=C(NCc1cnc(C(F)(F)F)s1)Nc1c(Cl)cc([C@@H](O)C(F)(F)F)cc1Cl [Example 33, 1-{2,6-dichloro-4-[(1R)-2,2,2-trifluoro-1-hydroxyethyl]phenyl}-3-{[2-(trifluoromethyl)-1,3-thiazole-5-yl]methyl}urea] | 30 | > 10000 |
| 300 | 87 (≈ 40.3 µg/mL) | 100 | O=C(NCc1cnc(C(F)(F)F)nc1)Nc1c(Cl)cc([C@H](O)C(F)(F)F)cc1Cl [Example 35 (3), 1-{2,6-dichloro-4-[(1S)-2,2,2-trifluoro-1-hydroxyethyl]phenyl}-3-{[2-(trifluoromethyl)-5-pyrimidinyl]methyl}urea] | 100 | > 10000 |
| 30 | 44 (≈ 20.6 µg/mL) | 100 | O=C(NCc1cnc(C(F)(F)F)s1)Nc1c(Cl)cc([C@H](O)C(F)(F)F)cc1Cl [Example 36, 1-{2,6-dichloro-4-[(1S)-2,2,2-trifluoro-1-hydroxyethyl]phenyl}-3-{[2-(trifluoromethyl)-1,3-thiazole-5-yl]methyl}urea] | 10 | > 10000 |
